From patent US20140205569A1, “METHODS AND COMPOSITIONS FOR PREVENTING AND TREATING OSTEOARTHRITIS” (priority 2010, published 2014)

What was measured:
canine chondrocytes = test: Quantitative PCR expression of osteoarthritis-related genes in fatty-acid-enriched canine chondrocytes in alginate beads, stimulated with SMNCM; format: cell-based; settings: fatty acid 50 μM, 3 weeks, 3rd week with 10% SMNCM; normalized to cyclophilin A; N=4
Procedure: Canine cartilage was digested in a 37° C. shaking water bath using the following enzymes: trypsin (0.25%) for 25 minutes, hyaluronidase (150U/ml) for 1 hour, and collagenase (0.78%) overnight. Digested cartilage was filtered to obtain chondrocytes. Chondrocytes were expanded in monolayer culture with complete media. Composition of the complete media is Dulbecco's Modified Eagle Medium (DMEM)/F12 supplemented with 10% FBS, 1% P/S (100 U/mL penicillin and 100 μg/mL streptomycin) and 50 μg/ml ascorbic acid. Reaching subconfluence, chondrocytes were detached with 0.05% trypsin and cryopreserved. After cryopreservation, canine chondrocytes were expanded in a monolayer and, after reaching subconfluence, cells were trypsinized and subsequently immobilized in alginate beads. Cells suspended in complete media +3% alginate were dropped from a 18-gauge syringe into calcium chloride (120 mM) to form “beads.” Chondrocyte beads were cultured in complete media and media was changed every 2 or 3 days. At the end of the treatment, the chondrocyte beads were dissolved in sodium citrate (55 mM in 0.15 M NaCl). Suspensions were centrifuged at 2620 rpm for 5 minutes. Cells were washed with phosphate buffer and centrifuged again at 2620 rpm for 5 minutes. One mL RNAqueous™ lysis binding solution (Ambion, Austin, Tex.) was added to the isolated canine chondrocyte pellet, mixed thoroughly and stored at −80° C. until RNA isolation could be performed.
Samples were vortexed and homogenized using a Quiashredder column (Qiagen, Valencia, Calif.) according to manufacturer's directions. The homogenized lysate was collected and 1 equal volume of 64% ethanol was added to it. This mixture was then applied to an RNAqueous™ filter cartridge, 700 uL at a time, and centrifuged for 1 minute at 10,000 rpm. The cartridge was washed using 700 uL wash solution #1 and 500 uL wash solution #2/3 with centrifugation at 10,000 rpm for 1 minute for each wash. The filter cartridge was dried by centrifugation (10,000 rpm) for 1 minute. RNA was eluted 3 times by centrifugation (as above) using 30 uL aliquots of 95-100° C. elution solution. The resulting RNA was DNAse-treated and quantitated in a Beckman DU 640B spectrophotometer (Beckman Coulter, Inc., Brea, Calif.) at 260 nm. Additionally, quantity and quality were assessed using a bioanalyzer (Agilent, Santa Clara, Calif.) according to manufacturer's directions.
Stimulated monocyte neutrophil conditioned media (SMNCM) was made by isolating monocytes and neutrophils from canine whole blood using NycoPrep™ according to the manufacturer's directions. Monocytes and neutrophils were stimulated with lipopolysaccharide (20 ng/mL) for 72 hours. The resulting supernatant was used as SMNCM in cell culture experimentation (SMNCM made up 10% of media used during experimentation and is kept in frozen aliquots).
Chondrocytes were enriched with a fatty acid at 50 μM just after they were enclosed in beads. FBS and ethanol were used as a vehicle. Once the enriched media were prepared, ethanol represented less than 0.1%. Cells were enriched with either arachidonic acid (AA) and dihomo-γ-linolenic acid for 3 weeks total in complete media. The 3rd week the enriched media also contained 10% stimulated monocyte neutrophil conditioned media (SMNCM). Chondrocyte beads were dissolved at the end of the experiment.
All samples were run singularly against each primer/probe set to determine what standard curve should be used. Standard curves were generated using serial dilutions of liver RNA or RNA from experimental samples. […] Values were normalized to cyclophilin A levels as determined by quantitative PCR. Inductions were calculated from each of the lowest sample's normalized value. N=4 for all treatments.
Values represent relative average induction values. […]

Prostaglandin E2 (PGE2) = test: PGE2 levels in chondrocyte media by enzyme immunoassay, per cell; format: cell-based, canine; settings: for PGE2 levels from chondrocyte media, Avg / PGE2 levels from chondrocyte media: fatty acid 50 μM; for PGE2 levels from chondrocyte media, Avg: average of four chondrocyte batches
Procedure: Canine cartilage was digested in a 37° C. shaking water bath using the following enzymes: trypsin (0.25%) for 25 minutes, hyaluronidase (150U/ml) for 1 hour, and collagenase (0.78%) overnight. Digested cartilage was filtered to obtain chondrocytes. Chondrocytes were expanded in monolayer culture with complete media. Composition of the complete media is Dulbecco's Modified Eagle Medium (DMEM)/F12 supplemented with 10% FBS, 1% P/S (100 U/mL penicillin and 100 μg/mL streptomycin) and 50 μg/ml ascorbic acid. Reaching subconfluence, chondrocytes were detached with 0.05% trypsin and cryopreserved. After cryopreservation, canine chondrocytes were expanded in a monolayer and, after reaching subconfluence, cells were trypsinized and subsequently immobilized in alginate beads. Cells suspended in complete media +3% alginate were dropped from a 18-gauge syringe into calcium chloride (120 mM) to form “beads.” Chondrocyte beads were cultured in complete media and media was changed every 2 or 3 days. At the end of the treatment, the chondrocyte beads were dissolved in sodium citrate (55 mM in 0.15 M NaCl). Suspensions were centrifuged at 2620 rpm for 5 minutes. Cells were washed with phosphate buffer and centrifuged again at 2620 rpm for 5 minutes. One mL RNAqueous™ lysis binding solution (Ambion, Austin, Tex.) was added to the isolated canine chondrocyte pellet, mixed thoroughly and stored at −80° C. until RNA isolation could be performed. Chondrocytes were enriched with a fatty acid at 50 μM just after they were enclosed in beads. FBS and ethanol were used as a vehicle. Once the enriched media were prepared, ethanol represented less than 0.1%. Cells were enriched with either arachidonic acid (AA) and dihomo-γ-linolenic acid for 3 weeks total in complete media. The 3rd week the enriched media also contained 10% stimulated monocyte neutrophil conditioned media (SMNCM). Chondrocyte beads were dissolved at the end of the experiment. Cell media was aliquoted in micro-centrifuge tubes and stored at −80° C. until analysis. Cells were enriched with either arachidonic acid (AA) and dihomo-γ-linolenic acid. Prostaglandin E2 (PGE2) levels were determined using Amersham Prostaglandin Prostaglandin E2 Biotrak Enzyme Immunoassay (EIA, GE Healthcare). Before performing the assay, media samples were thawed then diluted 50 to 250 times in assay buffer. Standards and samples were run in duplicate. The cell suspensions obtained after dissolving the alginate beads were centrifuged. After removing the supernatant, each cell pellet was resuspended in 1 ml of phosphate buffered saline. From each sample, 10 μL was added to the same volume of trypan blue stain before counting with a hemocytometer.

NF-kB = NF-kB activation measured as SEAP release in HT-29 clone 34 cells with or without rhTNF-alpha; format: cell-based; settings: general statement of the discovery
Procedure: HT-29 clone 34 cells were seeded at 2.0×10^5 cells/well in DMEM with 5% FCS and 1% PS. Cells were incubated for 24 hours at 37° C. at 5% CO2 with or without rhTNF-alpha with dihomo-gamma-linolenic acid (0.1, 0.3, 0.5, 0.7 or 1 mg/ml) in ethanol as a vehicle. NF-kB activity was measured as SEAP release using a Phospha-Light™ System (Applied Biosystems, Bedford, Mass.) per manufacturer's directions.

Structure (SMILES)	Quantitative PCR expression value 2252B (relative average induction) (canine chondrocytes)	Quantitative PCR expression value ADAMTS-4 (relative average induction) (canine chondrocytes)	Quantitative PCR expression value ADAMTS-5 (relative average induction) (canine chondrocytes)	Quantitative PCR expression value CYTL-1 (relative average induction) (canine chondrocytes)	Quantitative PCR expression value GRIA-4 (relative average induction) (canine chondrocytes)	Quantitative PCR expression value IGF-2 (relative average induction) (canine chondrocytes)	Quantitative PCR expression value IL-1 (relative average induction) (canine chondrocytes)	Quantitative PCR expression value IL-6 (relative average induction) (canine chondrocytes)	Quantitative PCR expression value IL-8 (relative average induction) (canine chondrocytes)	Quantitative PCR expression value MMP-2 (relative average induction) (canine chondrocytes)	Quantitative PCR expression value MMP-9 (relative average induction) (canine chondrocytes)	Quantitative PCR expression value MMP-13 (relative average induction) (canine chondrocytes)	Quantitative PCR expression value PC-2A (relative average induction) (canine chondrocytes)	Quantitative PCR expression value SOX-9 (relative average induction) (canine chondrocytes)	Quantitative PCR expression value TIMP-1 (relative average induction) (canine chondrocytes)	Quantitative PCR expression value TIMP-2 (relative average induction) (canine chondrocytes)	Quantitative PCR expression value TNF-alpha (relative average induction) (canine chondrocytes)	PGE2 levels from chondrocyte media, Avg (Prostaglandin E2 (PGE2))	PGE2 levels from chondrocyte media (Prostaglandin E2 (PGE2); chondrocyte batch 1084)	PGE2 levels from chondrocyte media (Prostaglandin E2 (PGE2); chondrocyte batch 31010)	other results
CCCCC/C=C\C/C=C\C/C=C\C/C=C\CCCC(=O)O [AA, arachidonic acid, reference compound]	4.3	1.4	3.0	18.1	5.0	14.7	4.1	4.8	3.0	1.8	9.5	2.7	4.5	1.9	3.5	1.6	26.4	1414 fg/ml/cell	957 fg/ml/cell	473 fg/ml/cell	PGE2 levels from chondrocyte media (Prostaglandin E2 (PGE2); chondrocyte batch 31510): 274 fg/ml/cell; PGE2 levels from chondrocyte media (Prostaglandin E2 (PGE2); chondrocyte batch 41210): 3950 fg/ml/cell
CCCCC/C=C\C/C=C\C/C=C\CCCCCCC(=O)O [DGLA, dihomo-γ-linolenic acid]	4.7	1.6	2.8	18.0	4.2	15.9	2.4	3.9	3.1	1.6	22.9	2.1	5.2	1.9	3.7	1.6	18.8	598 fg/ml/cell	800 fg/ml/cell	331 fg/ml/cell	Effect on NF-kB activation (in words) (NF-kB): inhibit NF-kB activation; PGE2 % Decrease (Prostaglandin E2 (PGE2); 50 μM DGLA versus 50 μM AA, chondrocyte batch 1084): 16%; PGE2 % Decrease (Prostaglandin E2 (PGE2); 50 μM DGLA versus 50 μM AA, chondrocyte batch 31010): 30%; PGE2 % Decrease (Prostaglandin E2 (PGE2); 50 μM DGLA versus 50 μM AA, chondrocyte batch 31510): 34%; PGE2 % Decrease (Prostaglandin E2 (PGE2); 50 μM DGLA versus 50 μM AA, chondrocyte batch 41210): 73%; PGE2 % Decrease, Avg (Prostaglandin E2 (PGE2); 50 μM DGLA versus 50 μM AA, from the batch averages): 58%; PGE2 levels from chondrocyte media (Prostaglandin E2 (PGE2); chondrocyte batch 31510): 182 fg/ml/cell; PGE2 levels from chondrocyte media (Prostaglandin E2 (PGE2); chondrocyte batch 41210): 1080 fg/ml/cell; Effect on inflammatory mediators (in words) (Prostaglandin E2 (PGE2); general statement of the discovery): reduce inflammatory mediators
